Experimental data: US8598086B2, “3-halo-(arly)-4-iminotetrahydropicolinates and their use as herbicides” (Dow AgroSciences, LLC., priority 2009, dated 2013)

Experiments:
Type in all cases: in vivo
[1] = system: barnyardgrass (Echinochloa crus-galli); test: Post-emergent Test II; conditions: after 14 d, 0 = no injury, 100 = complete kill
Method: (§1) Post-emergent Test II: Seeds or nutlets of the desired test plant species were planted in Sun Gro Metro-Mix® 360 planting mixture, which typically has a pH of 6.0 to 6.8 and an organic matter content of about 30 percent, in plastic pots with a surface area of 64 square centimeters. When required to ensure good germination and healthy plants, a fungicide treatment and/or other chemical or physical treatment was applied. The plants were grown for 7-21 d in a greenhouse with an approximate 15 h photoperiod which was maintained at about 23-29° C. during the day and 22-28° C. during the night. Nutrients and water were added on a regular basis and supplemental lighting was provided with overhead metal halide 1000-Watt lamps as necessary. The plants were employed for testing when they reached the first or second true leaf stage.
(§2) A weighed amount, determined by the highest rate to be tested, of each test compound was placed in a 25 mL glass vial and was dissolved in 4 mL of a 97:3 v/v mixture of acetone and DMSO to obtain concentrated stock solutions. […] The concentrated stock solutions obtained were diluted with 20 mL of an aqueous mixture containing acetone, water, isopropyl alcohol, DMSO, Atplus 411F crop oil concentrate, and Triton® X-155 surfactant in a 48.5:39:10:1.5:1.0:0.02 v/v ratio to obtain spray solutions containing the highest application rates. Additional application rates were obtained by serial dilution of 12 mL of the high rate solution into a solution containing 2 mL of 97:3 v/v mixture of acetone and DMSO and 10 mL of an aqueous mixture containing acetone, water, isopropyl alcohol, DMSO, Atplus 411F crop oil concentrate, and Triton X-155 surfactant in a 48.5:39:10:1.5:1.0:0.02 v/v ratio to obtain 1/2×, 1/4×, 1/8× and 1/16× rates of the high rate. Compound requirements are based upon a 12 mL application volume at a rate of 187 liters per hectare (L/ha). Formulated compounds were applied to the plant material with an overhead Mandel track sprayer equipped with 8002E nozzles calibrated to deliver 187 L/ha over an application area of 0.503 square meters at a spray height of 18 inches (43 cm) above the average plant canopy height. Control plants were sprayed in the same manner with the solvent blank.
(§3) The treated plants and control plants were placed in a greenhouse as described above and watered by subirrigation to prevent wash-off of the test compounds. After 14 d, the condition of the test plants as compared with that of the untreated plants was determined visually and scored on a scale of 0 to 100 percent where 0 corresponds to no injury and 100 corresponds to complete kill.

[2] = system: bindweed (Polygonum convolvulus); test: Post-emergent Test II; conditions: after 14 d, 0 = no injury, 100 = complete kill
Method: as §1, §2, §3

[3] = system: lambsquarters (Chenopodium album); test: Post-emergent Test II; conditions: after 14 d, 0 = no injury, 100 = complete kill
Method: as §1, §2, §3

rice (Oryza sativa) = test: Post-emergent Test II; conditions: after 14 d, 0 = no injury, 100 = complete kill
Method: as §1, §2, §3

[4] = system: velvetleaf (Abutilon theophrasti); test: Post-emergent Test II; conditions: after 14 d, 0 = no injury, 100 = complete kill
Method: as §1, §2, §3

[5] = system: giant foxtail (Setaria faberi); test: Post-emergent Test I; conditions: 10 d after treatment, scale 0 (no activity) to 100 (complete plant death)
Method: (§4) Post-emergent Test I: Weed seeds were obtained from commercial suppliers and planted into 5″-round pots containing soilless media mix (Metro-Mix 360®, Sun Gro Horticulture Canada CM Ltd. Vancouver, British Columbia) 8-12 d prior to application and cultured in a greenhouse equipped with supplemental light sources to provide a 16 h photoperiod at 24-29° C. All pots were surface irrigated. Compounds were dissolved in a 97:3 v/v (volume per volume) mixture of acetone and dimethyl sulfoxide (DMSO) and diluted to the appropriate concentration in a final application solution containing water, acetone, isopropyl alcohol, DMSO and Agri-dex (crop oil concentrate) in a 59:23:15:1.0:1.5 v/v ratio and 0.02% w/v (weight per volume) of Triton X-155 to obtain the spray solution containing the highest application rate. The high application rate was serial diluted with the above application solution to provide delivery of the compound at rates 1/2×, 1/4× and 1/8× of the highest rate (equivalent to 4.0, 2.0, 1.0, and 0.5 kg/ha, respectively). Formulated compound (2.7 mL) was applied using a DeVilbiss® compressed air sprayer at 2-4 pounds per square inch (psi) […]. Following treatment, pots were allowed to dry before being returned to the greenhouse for the duration of the experiment and subirrigated as needed. All pots were fertilized one time per week by subirrigating with Peters Peat-Lite Special® fertilizer (20-10-20). Phytotoxicity ratings were obtained 10 d after treatment. All evaluations were made on a scale of 0 to 100 where 0 represents no activity and 100 represents complete plant death.

[6] = system: ivyleaf morningglory (Ipomoea hederacea); test: Post-emergent Test I; conditions: 10 d after treatment, scale 0 (no activity) to 100 (complete plant death)
Method: as §4

[7] = system: sunflower (Helianthus annuus); test: Post-emergent Test I; conditions: 10 d after treatment, scale 0 (no activity) to 100 (complete plant death)
Method: as §4

wild oat (Avena fatua) [8] = test: Post-emergent Test I; conditions: 10 d after treatment, scale 0 (no activity) to 100 (complete plant death)
Method: as §4

[9] = system: giant foxtail (Setaria faberi); test: Pre-emergent Test I; conditions: 14 d after treatment, scale 0 (no herbicidal effect) to 100 (plant death or lack of emergence)
Method: (§5) Pre-emergent Test I: Weed seeds were obtained from commercial suppliers and planted into round plastic pots (5-inch diameter) containing silt loam soil (23% sand, 52% silt, 29% clay, 2.9% organic matter, CEC 16.6, pH 7.2). After planting, all pots were subirrigated 16 h prior to compound application. Compounds were dissolved in a 97:3 v/v mixture of acetone and DMSO and diluted to the appropriate concentration in a final application solution containing water, acetone, isopropyl alcohol, DMSO and Agri-dex (crop oil concentrate) in a 59:23:15:1.0:1.5 v/v ratio and 0.02% w/v of Triton X-155 to obtain the spray solution containing the highest application rate. The high application rate was serial diluted with the above application solution to provide delivery of the compound at rates 1/2×, 1/4× and 1/8× of the highest rate (equivalent to 4.0, 2.0, 1.0, and 0.5 kg/ha, respectively). Formulated compound (2.7 mL) was pipetted evenly over the soil surface followed by incorporation with water (15 mL). Following treatment, pots were returned to the greenhouse for the duration of the experiment. The greenhouse was programmed for an approximate 15 h photoperiod which was maintained at about 23-29° C. during the day and 22-28° C. during the night. Nutrients and water were added on a regular basis through surface irrigation and supplemental lighting was provided with overhead metal halide 1000-Watt lamps as necessary. Herbicidal effect ratings were obtained 14 d after treatment. All evaluations were made relative to appropriate controls on a scale of 0 to 100 where 0 represents no herbicidal effect and 100 represents plant death or lack of emergence from the soil.

[10] = system: ivyleaf morningglory (Ipomoea hederacea); test: Pre-emergent Test I; conditions: 14 d after treatment, scale 0 (no herbicidal effect) to 100 (plant death or lack of emergence)
Method: as §5

[11] = system: pigweed (Amaranthus retroflexus); test: Pre-emergent Test I; conditions: 14 d after treatment, scale 0 (no herbicidal effect) to 100 (plant death or lack of emergence)
Method: as §5

[12] = system: sunflower (Helianthus annuus); test: Pre-emergent Test I; conditions: 14 d after treatment, scale 0 (no herbicidal effect) to 100 (plant death or lack of emergence)
Method: as §5

wild oat (Avena fatua) [13] = test: Pre-emergent Test I; conditions: 14 d after treatment, scale 0 (no herbicidal effect) to 100 (plant death or lack of emergence)
Method: as §5

[14] = system: pigweed (Amaranthus retroflexus); test: Post-emergent Test I; conditions: 10 d after treatment, scale 0 (no activity) to 100 (complete plant death)
Method: as §4

COC(=O)C1=C(Br)/C(=N/OS(C)(=O)=O)CC(c2ccc(Cl)c(OC)c2F)N1 (stereo not drawn) [Compound 32, 3-bromo-6-(4-chloro-2-fluoro-3-methoxyphenyl)-4-[(E)-methanesulfonyloximino]-1,4,5,6-tetrahydropyridine-2-carboxylic acid methyl ester]
Visual injury score ECHCG ([1]; 140 g ai/ha): 90%
Visual injury score POLCO ([2]; 140 g ai/ha): 90%
Visual injury score CHEAL ([3]; 140 g ai/ha): 100%
Visual injury score ORYSA (rice (Oryza sativa); 140 g ai/ha): 15%
Visual injury score ABUTH ([4]; 140 g ai/ha): 100%

COC(=O)C1=C(Cl)/C(=N/OS(=O)(=O)c2ccc(C)cc2)CC(c2ccc(Cl)c(OC)c2F)N1 (stereo not drawn) [Compound 31, 3-Chloro-6-(4-chloro-2-fluoro-3-methoxyphenyl)-4-[(E)-p-toluenesulfonyloximino]-1,4,5,6-tetrahydropyridine-2-carboxylic acid methyl ester]
Phytotoxicity rating SETFA ([5]; 4000 g ai/ha): 80
Phytotoxicity rating IPOHE ([6]; 4000 g ai/ha): 90
Phytotoxicity rating HELAN ([7]; 4000 g ai/ha): 90
Phytotoxicity rating AVEFA (wild oat (Avena fatua) [8]; 4000 g ai/ha): 40
Herbicidal effect rating SETFA ([9]; 4000 g ai/ha): 10
Herbicidal effect rating IPOHE ([10]; 4000 g ai/ha): 100
Herbicidal effect rating AMARE ([11]; 4000 g ai/ha): 100
Herbicidal effect rating HELAN ([12]; 4000 g ai/ha): 100
Herbicidal effect rating AVEFA (wild oat (Avena fatua) [13]; 4000 g ai/ha): 10

CCOC(=O)C1=C(Cl)/C(=N/OS(C)(=O)=O)CC(c2ccc(Cl)c(OC)c2F)N1 (stereo not drawn) [Compound 30, 3-Chloro-6-(4-chloro-2-fluoro-3-methoxyphenyl)-4-[(E)-methanesulfonyloximino]-1,4,5,6-tetrahydropyridine-2-carboxylic acid ethyl ester]
Phytotoxicity rating SETFA ([5]; 3400 g ai/ha): 85
Phytotoxicity rating IPOHE ([6]; 3400 g ai/ha): 95
Phytotoxicity rating AMARE ([14]; 3400 g ai/ha): 100
Phytotoxicity rating HELAN ([7]; 3400 g ai/ha): 90
Phytotoxicity rating AVEFA (wild oat (Avena fatua) [8]; 3400 g ai/ha): 30
Herbicidal effect rating SETFA ([9]; 3400 g ai/ha): 100
Herbicidal effect rating IPOHE ([10]; 3400 g ai/ha): 100
Herbicidal effect rating AMARE ([11]; 3400 g ai/ha): 100
Herbicidal effect rating HELAN ([12]; 3400 g ai/ha): 100
Herbicidal effect rating AVEFA (wild oat (Avena fatua) [13]; 3400 g ai/ha): 95

COC(=O)C1=C(Cl)/C(=N/OC(C)=O)CC(c2ccc(Cl)c(OC)c2F)N1 (stereo not drawn) [Compound 35, 3-chloro-6-(4-chloro-2-fluoro-3-methoxyphenyl)-4-[(E)-acetoxyoximino]-3-chloro-1,4,5,6-tetrahydropyridine-2-carboxylic acid methyl ester]
Visual injury score ECHCG ([1]; 70 g ai/ha): 90%
Visual injury score POLCO ([2]; 70 g ai/ha): 100%
Visual injury score CHEAL ([3]; 70 g ai/ha): 100%
Visual injury score ORYSA (rice (Oryza sativa); 70 g ai/ha): 0%
Visual injury score ABUTH ([4]; 70 g ai/ha): 100%

COC(=O)C1=C(Cl)/C(=N/OS(C)(=O)=O)CC(c2ccc(Cl)cc2)N1 (stereo not drawn) [Compound 27, 3-Chloro-6-(4-chlorophenyl)-4-[(E)-methanesulfonyloximino]-1,4,5,6-tetrahydropyridine-2-carboxylic acid methyl ester]
Phytotoxicity rating SETFA ([5]; 3960 g ai/ha): 90
Phytotoxicity rating IPOHE ([6]; 3960 g ai/ha): 85
Phytotoxicity rating AMARE ([14]; 3960 g ai/ha): 100
Phytotoxicity rating HELAN ([7]; 3960 g ai/ha): 95
Phytotoxicity rating AVEFA (wild oat (Avena fatua) [8]; 3960 g ai/ha): 75
Herbicidal effect rating SETFA ([9]; 3960 g ai/ha): 100
Herbicidal effect rating IPOHE ([10]; 3960 g ai/ha): 100
Herbicidal effect rating AMARE ([11]; 3960 g ai/ha): 100
Herbicidal effect rating HELAN ([12]; 3960 g ai/ha): 100
Herbicidal effect rating AVEFA (wild oat (Avena fatua) [13]; 3960 g ai/ha): 20

CCOC(=O)C1=C(Cl)/C(=N/OS(C)(=O)=O)CC(c2ccc(Cl)cc2F)N1 (stereo not drawn) [Compound 26, 3-chloro-6-(4-chloro-2-fluorophenyl)-4-[(E)-methanesulfonyloximino]-1,4,5,6-tetrahydropyridine-2-carboxylic acid ethyl ester]
Phytotoxicity rating SETFA ([5]; 3760 g ai/ha): 100
Phytotoxicity rating IPOHE ([6]; 3760 g ai/ha): 100
Phytotoxicity rating HELAN ([7]; 3760 g ai/ha): 100
Phytotoxicity rating AVEFA (wild oat (Avena fatua) [8]; 3760 g ai/ha): 95
Herbicidal effect rating SETFA ([9]; 3760 g ai/ha): 70
Herbicidal effect rating IPOHE ([10]; 3760 g ai/ha): 100
Herbicidal effect rating AMARE ([11]; 3760 g ai/ha): 100
Herbicidal effect rating HELAN ([12]; 3760 g ai/ha): 70
Herbicidal effect rating AVEFA (wild oat (Avena fatua) [13]; 3760 g ai/ha): 10
